Columns and labels:
[1] = Plasma pharmacokinetics, acute study (single oral administration); type: in vivo, CD1 female mice; details: for Cmax ±SD / AUC 0-last / HL / Tmax: plasma analyte
Description: (§1) The experiments were performed in CD1 female mice, 7 weeks of age, (body weight 25 ± 2 g) obtained from Envigo RMS SrL (Udine, Italy). They were maintained under specific-pathogen-free conditions with constant temperature and humidity, according to institutional guidelines regularly checked by a certified veterinarian. Animal experimentation was conducted in conformance with the following laws, regulations, and policies governing the care and use of laboratory animals: Italian Governing Law (D. l. 26/2014; Authorization n.19/2008-A issued March 6, 2008 by the Ministry of Health). Mario Negri Institutional Regulations and Policies providing internal authorizations for persons conducting animal experiments (Quality Management System Certificate –UNI EN ISO 9001:2008 – Reg. N 86121). The experimental protocol was reviewed by the Mario Negri Institute Ethical Committee and approved by the Italian Ministry of Health (Aut. Min. No 489/2016-Pr).
(§2) The pharmacokinetics of oral Bio-nFeR was investigated in comparison to that of the reference formulation NCI-FeR, after single administration of multiple doses and after chronic administrations, daily for 2 weeks or bi-daily for 1 week. Bio-nFeR was reconstituted at 20 mg/mL fenretinide to allow the administration of 200 mg/Kg fenretinide that corresponded to the highest dose. The doses of 100, 50 and 10 mg/Kg were administered by using serial dilution of the 20 mg/mL solution.
(§3) NCI-FeR prepared, as per the NCI instructions, at 11.6% w:w fenretinide:internal capsule components, was diluted with corn oil to obtain the treatment solutions at the concentrations of 20, 15 and 10 mg/mL, corresponding to the administered doses of 200, 150 and 100 mg/Kg respectively.
(§4) The oral pharmacokinetics of Bio-nFeR were investigated in four independent groups of 24 mice, randomized to receive different treatment with the following fenretinide equivalent doses: 10, 50, 100 and 200 mg/Kg. The drug was administered by oral gavage and after treatment, blood samples were taken at 15 and 30 min and at 1, 2, 4, 8/10, 24 and 48 h and collected in heparinized tubes from the retro-orbital plexus of the mice under isoflurane anesthesia. Mice were then sacrificed by cervical dislocation and liver, kidney and brain were removed and immediately frozen in dry-ice for future determination. To obtain plasma, blood was centrifuged at 4000 rpm for 10 min at 4 °C. To evaluate fenretinide and metabolites excretion, urine and faeces were collected over a 0–24 h and 24–48 h periods. The collection was performed in three mice per group of treatment, individually housed into metabolic cages for urine and faeces collection. All the biological samples were stored at − 20 °C until analysis. To compare the absorption of Bio-nFeR to NCI-FeR and to study the bioavailability, another independent groups of 24 mice were randomized to receive an oral dose of 200 mg/Kg of NCI-FeR. Blood samples were taken at the time reported above. Twenty-four hours fractions of urine and faeces were collected in three mice per group of treatment. Plasma and the other biological specimens were stored at − 20 °C until analysis. Chronic study: the oral pharmacokinetic of Bio-nFeR in comparison with NCI-FeR were also investigated after chronic administrations. Mice were divided in three independent groups, randomized to receive a single treatment of 150 mg/Kg or different repeated treatments of 150 mg/Kg, daily for 2 weeks (12 days on and 2 days off), or 100 mg/Kg bi-daily for 1 week (5 days on 2 days off). Bio-nFeR and NCI-FeR were administered by oral gavage, collecting blood samples at 0.5, 1, 2, 4, 8/10 and 24 h, the day of the single treatment and at 0, 1, 2, 4, 8/10, 24 and 48 h after the last dose of both the chronic treatments. The procedures of blood collection, plasma preparation, sacrifice of mice and storing of samples were as reported in acute study. […]

[2] = Plasma pharmacokinetics, chronic study (150 mg/Kg single vs daily for 2 weeks); type: in vivo, CD1 female mice; details: for AUC 0-last / Cmax ±SD / HL / Tmax: plasma analyte
Description: as §1, §2, §3, §4

[3] = single oral Bio-nFeR 10 mg/kg, Suppl. Table 2 A
[4] = single oral Bio-nFeR 50 mg/kg, Suppl. Table 2 A
[5] = single oral Bio-nFeR 100 mg/kg, Suppl. Table 2 A
[6] = single oral Bio-nFeR 200 mg/kg, Suppl. Table 2 A
[7] = single oral Bio-nFeR, 4-HPR dose 200mg/Kg, Suppl. Table 2 B
[8] = single oral NCI-nFeR, 4-HPR dose 200mg/Kg, Suppl. Table 2 B
[9] = oral Bio-nFeR 150 mg/kg daily, 2 week

COc1ccc(NC(=O)\C=C(C)/C=C/C=C(C)\C=C\C2=C(C)CCCC2(C)C)cc1 [MPR]
Cmax ±SD ([1]; mice, single oral Bio-nFeR 10 mg/kg, Suppl. Table 2 A): 120.6 ng/mL | Cmax ±SD ([1]; mice, single oral Bio-nFeR 50 mg/kg, Suppl. Table 2 A): 778.9 ng/mL | Cmax ±SD ([1]; mice, single oral Bio-nFeR 100 mg/kg, Suppl. Table 2 A): 1112.6 ng/mL | Cmax ±SD ([1]; mice, single oral Bio-nFeR 200 mg/kg, Suppl. Table 2 A): 1070.5 ng/mL | AUC 0-last [1, 3]: 1750.7 ng·h/mL | HL [1, 3]: 9.4 h | Tmax [1, 3]: 4 h | AUC 0-last [1, 4]: 9931.5 ng·h/mL | HL [1, 4]: 10.3 h | Tmax [1, 4]: 4 h | AUC 0-last [1, 5]: 15439.7 ng·h/mL | HL [1, 5]: 8.6 h | Tmax [1, 5]: 4 h | AUC 0-last [1, 6]: 21449.6 ng·h/mL | HL [1, 6]: 11.6 h | Tmax [1, 6]: 4 h | AUC 0-last [1, 7]: 21449.6 ng·h/mL | Cmax ±SD [1, 7]: 1070.5 ng/mL | HL [1, 7]: 11.6 h | Tmax [1, 7]: 4 h | AUC 0-last [1, 8]: 23406.1 ng·h/mL | Cmax ±SD [1, 8]: 1407.0 ng/mL | HL [1, 8]: 9.9 h | Tmax [1, 8]: 4 h | amount of metabolite in plasma in comparison to 4-HPR ([1]; study of multiple doses, after Bio-nFeR administration): ~15% | relative percent amount of metabolite versus 4-HPR in plasma ([2]; after single and repeated treatment): ~15% | AUC 0-last [2, 9]: 22086.1 ng·h/mL | Cmax ±SD [2, 9]: 1147.9 ng/mL | HL [2, 9]: 11.2 h | Tmax [2, 9]: 4 h | AUC 0-last ([2]; oral Bio-nFeR 150 mg/kg, Day 1): 10435.4 ng·h/mL | Cmax ±SD ([2]; oral Bio-nFeR 150 mg/kg, Day 1): 798.0 ng/mL | HL ([2]; oral Bio-nFeR 150 mg/kg, Day 1): 8.6 h | Tmax ([2]; oral Bio-nFeR 150 mg/kg, Day 1): 4 h

Reference: article PMC6706930, “A novel oral micellar fenretinide formulation with enhanced bioavailability and antitumour activity against multiple tumours from cancer stem cells” (Journal of Experimental & Clinical Cancer Research : CR, 2019)
